According to ChEMBL document CHEMBL1201862, “PubChem BioAssay data set” (2004):
Active and inactive are the calls of the source.

What was measured:
[1] = molecular target: T1, RNA-binding protein pos-1 (Caenorhabditis elegans, UniProt G5EF15); test: inhibitors of POS-1/mex-3 RNA binding, dose response, biochemical, fluorescence polarization (AID 1964);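 note: purified POS-1 fused to maltose binding protein made in E. coli; potency of compounds blocking POS-1 binding to fluorescent RNA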
T1 sequence (G5EF15 whole entry): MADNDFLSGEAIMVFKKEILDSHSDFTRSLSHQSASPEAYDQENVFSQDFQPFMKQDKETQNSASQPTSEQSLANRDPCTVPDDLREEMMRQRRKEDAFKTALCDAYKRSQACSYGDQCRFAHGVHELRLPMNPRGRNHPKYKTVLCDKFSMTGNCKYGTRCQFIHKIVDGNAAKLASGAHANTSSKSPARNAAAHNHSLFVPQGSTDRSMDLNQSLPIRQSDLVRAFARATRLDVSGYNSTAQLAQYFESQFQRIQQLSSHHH

[2] = molecular target: Nucleotide-binding oligomerization domain-containing protein 2 (Homo sapiens, UniProt Q9HC29); test: NOD2 signaling inhibitors, cell-based, luminescence, uHTS, HEK293 (AID 1566); assay type: functional
[3] = test system: HEK293; test: cells; assay type: functional, cell-based; details: Homo sapiens
[4] = test system: HEK293; test: NOD1 signaling inhibitors, primary screen, cell-based, luminescence, uHTS (AID 1578); assay type: functional; details: Homo sapiens
[5] = HeLa cell cytotoxicity, dose response, cytotoxicity control for MgcRacGAP inhibitor project (AID 624300); assay type: functional
[6] = molecular target: T2, Microphthalmia-associated transcription factor (Homo sapiens, UniProt O75030); test: TRPM1 promoter luciferase signal decrease, dose response, MITF inhibitor project, cell-based, SK-MEL-5, cherry-picked, set 3 (AID 493073); assay type: functional
T2 sequence (O75030 whole entry): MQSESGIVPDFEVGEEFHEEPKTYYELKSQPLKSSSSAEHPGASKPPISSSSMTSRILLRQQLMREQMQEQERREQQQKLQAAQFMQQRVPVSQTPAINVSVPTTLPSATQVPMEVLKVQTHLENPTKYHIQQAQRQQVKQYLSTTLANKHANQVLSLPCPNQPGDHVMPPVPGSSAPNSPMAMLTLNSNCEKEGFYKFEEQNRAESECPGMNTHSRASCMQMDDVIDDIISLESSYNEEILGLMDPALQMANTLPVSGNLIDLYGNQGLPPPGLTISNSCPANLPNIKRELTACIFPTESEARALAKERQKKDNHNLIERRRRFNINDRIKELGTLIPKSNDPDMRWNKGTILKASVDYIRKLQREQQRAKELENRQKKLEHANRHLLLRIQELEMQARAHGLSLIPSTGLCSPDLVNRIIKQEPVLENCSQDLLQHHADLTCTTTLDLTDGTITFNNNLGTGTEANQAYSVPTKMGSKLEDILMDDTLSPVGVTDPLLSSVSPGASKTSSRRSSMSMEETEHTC

[7] = test system: Vero; test: cells; assay type: functional; details: Chlorocebus sabaeus
[8] = test system: HEK293; test: NOD2 signaling inhibitors in MDP-stimulated cells, cell-based, uHTS, luminescence (AID 2001); assay type: functional; details: Homo sapiens
[9] = test system: HEK293; test: cells; assay type: functional, cell-based; details: Homo sapiens; remark: listed apart in the source
[10] = test system: HEK293; test: cells; assay type: functional, cell-based; details: Homo sapiens; remark: listed apart in the source
[11] = molecular target: T3, Zinc finger protein mex-5 (Caenorhabditis elegans, UniProt Q9XUB2); test: MEX-5/TCR-2 RNA interaction inhibitors, dose response, biochemical, C. elegans, fluorescence polarization (AID 1960)
T3 sequence (Q9XUB2 whole entry): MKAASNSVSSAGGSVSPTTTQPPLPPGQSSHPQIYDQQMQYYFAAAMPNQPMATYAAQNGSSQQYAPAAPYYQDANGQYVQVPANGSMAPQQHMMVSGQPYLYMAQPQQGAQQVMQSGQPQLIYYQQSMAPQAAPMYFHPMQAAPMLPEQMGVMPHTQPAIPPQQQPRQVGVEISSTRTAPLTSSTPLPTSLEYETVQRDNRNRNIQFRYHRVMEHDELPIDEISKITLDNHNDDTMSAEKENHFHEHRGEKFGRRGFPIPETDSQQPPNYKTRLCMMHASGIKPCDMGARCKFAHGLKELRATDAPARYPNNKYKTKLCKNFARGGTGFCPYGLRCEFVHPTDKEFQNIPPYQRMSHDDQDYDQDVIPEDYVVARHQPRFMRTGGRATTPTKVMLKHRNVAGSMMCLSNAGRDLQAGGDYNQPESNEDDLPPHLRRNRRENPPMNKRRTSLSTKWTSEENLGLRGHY

[12] = molecular target: Tyrosine-protein phosphatase non-receptor type 11 (Homo sapiens, UniProt Q06124); test: SHP2 phosphatase inhibition, dose response, selectivity assay for STEP inhibitor project, biochemical (AID 602367); assay type: functional; details: read-out: IC50_Mean
[13] = molecular target: Tyrosine-protein phosphatase non-receptor type 5 (Homo sapiens, UniProt P54829); test: STEP phosphatase inhibitors, confirmation, biochemical, fluorescence intensity, uHTS hits (AID 602372); assay type: functional; details: read-out: IC50_Mean
[14] = molecular target: T4, Tyrosine-protein phosphatase non-receptor type 7 (Homo sapiens, UniProt P35236); test: SAR analysis of chemical inhibitors of HePTP using a Fluorescent assay - Set 2. [Related pubchem assays (depositor defined):AID1059, AID1077, AID1661, AID2085, AID521]; assay type: functional
T4 sequence (P35236 whole entry): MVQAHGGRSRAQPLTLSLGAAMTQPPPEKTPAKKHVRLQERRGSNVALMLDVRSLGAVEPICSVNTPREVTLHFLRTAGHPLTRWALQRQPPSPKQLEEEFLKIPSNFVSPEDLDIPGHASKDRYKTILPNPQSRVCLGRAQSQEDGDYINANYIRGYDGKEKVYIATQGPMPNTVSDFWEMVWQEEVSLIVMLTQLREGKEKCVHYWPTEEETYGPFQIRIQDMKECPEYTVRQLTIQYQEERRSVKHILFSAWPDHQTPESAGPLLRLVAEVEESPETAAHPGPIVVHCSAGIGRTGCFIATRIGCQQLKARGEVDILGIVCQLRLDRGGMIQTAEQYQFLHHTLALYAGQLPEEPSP

[15] = molecular target: T5, Dual specificity protein phosphatase 3 (Homo sapiens, UniProt P51452); test: SAR VHR1 Fluorescent Assay for In Vitro dose response studies Set 2. [Related pubchem assays (depositor defined):AID1654, AID1661, AID1878]; assay type: functional
[16] = molecular target: T5, Dual specificity protein phosphatase 3; test: VHR phosphatase inhibition, dose response, selectivity assay for STEP inhibitor project, biochemical (AID 602374); assay type: functional; details: read-out: IC50_Mean

T5 sequence (P51452 whole entry): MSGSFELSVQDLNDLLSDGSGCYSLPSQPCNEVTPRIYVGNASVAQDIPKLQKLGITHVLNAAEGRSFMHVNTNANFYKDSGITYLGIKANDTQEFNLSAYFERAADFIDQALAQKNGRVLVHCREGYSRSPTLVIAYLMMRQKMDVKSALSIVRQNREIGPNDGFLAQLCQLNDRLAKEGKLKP
Sequence of Tyrosine-protein phosphatase non-receptor type 5 (P54829 whole entry): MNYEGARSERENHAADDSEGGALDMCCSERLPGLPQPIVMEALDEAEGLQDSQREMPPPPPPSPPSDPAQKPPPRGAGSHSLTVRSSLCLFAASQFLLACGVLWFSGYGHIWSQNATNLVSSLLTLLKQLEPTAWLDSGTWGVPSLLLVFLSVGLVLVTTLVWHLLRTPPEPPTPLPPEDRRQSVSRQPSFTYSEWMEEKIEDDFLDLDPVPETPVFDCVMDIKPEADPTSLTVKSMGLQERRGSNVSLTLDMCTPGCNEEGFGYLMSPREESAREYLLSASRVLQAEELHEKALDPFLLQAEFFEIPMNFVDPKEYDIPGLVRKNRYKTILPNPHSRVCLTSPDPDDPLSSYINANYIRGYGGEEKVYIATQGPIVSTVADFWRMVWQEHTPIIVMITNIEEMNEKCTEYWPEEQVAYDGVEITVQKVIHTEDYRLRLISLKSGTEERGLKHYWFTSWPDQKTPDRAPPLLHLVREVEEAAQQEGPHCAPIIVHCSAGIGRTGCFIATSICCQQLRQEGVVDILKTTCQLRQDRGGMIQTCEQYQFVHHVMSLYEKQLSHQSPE
Sequence of Nucleotide-binding oligomerization domain-containing protein 2 (Q9HC29 whole entry, the tested form may be a part): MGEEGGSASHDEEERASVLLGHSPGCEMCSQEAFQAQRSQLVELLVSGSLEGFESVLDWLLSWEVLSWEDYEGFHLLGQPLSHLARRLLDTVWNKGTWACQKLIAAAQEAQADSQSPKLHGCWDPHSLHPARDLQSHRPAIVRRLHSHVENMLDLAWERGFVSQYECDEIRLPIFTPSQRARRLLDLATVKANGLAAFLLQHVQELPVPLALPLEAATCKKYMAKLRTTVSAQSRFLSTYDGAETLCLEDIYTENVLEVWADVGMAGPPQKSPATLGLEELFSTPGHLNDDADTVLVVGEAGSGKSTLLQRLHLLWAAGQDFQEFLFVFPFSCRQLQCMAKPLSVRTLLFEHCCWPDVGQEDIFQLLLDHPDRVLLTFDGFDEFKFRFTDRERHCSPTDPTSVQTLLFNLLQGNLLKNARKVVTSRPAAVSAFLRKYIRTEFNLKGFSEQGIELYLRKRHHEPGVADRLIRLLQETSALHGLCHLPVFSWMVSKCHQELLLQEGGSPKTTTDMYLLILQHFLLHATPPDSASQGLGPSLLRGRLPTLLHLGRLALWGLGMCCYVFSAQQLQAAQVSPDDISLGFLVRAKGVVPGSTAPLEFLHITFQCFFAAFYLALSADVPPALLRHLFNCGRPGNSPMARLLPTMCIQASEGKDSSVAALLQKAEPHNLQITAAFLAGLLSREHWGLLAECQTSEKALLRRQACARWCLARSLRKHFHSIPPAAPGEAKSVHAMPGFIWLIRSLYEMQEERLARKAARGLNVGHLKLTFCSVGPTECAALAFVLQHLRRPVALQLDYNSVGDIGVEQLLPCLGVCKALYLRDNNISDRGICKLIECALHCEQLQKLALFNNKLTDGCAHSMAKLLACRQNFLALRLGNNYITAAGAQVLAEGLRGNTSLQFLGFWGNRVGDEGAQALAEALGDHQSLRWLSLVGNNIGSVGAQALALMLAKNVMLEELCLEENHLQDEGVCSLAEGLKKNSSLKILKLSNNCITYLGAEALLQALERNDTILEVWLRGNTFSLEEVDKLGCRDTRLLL
Sequence of Tyrosine-protein phosphatase non-receptor type 11 (Q06124 whole entry): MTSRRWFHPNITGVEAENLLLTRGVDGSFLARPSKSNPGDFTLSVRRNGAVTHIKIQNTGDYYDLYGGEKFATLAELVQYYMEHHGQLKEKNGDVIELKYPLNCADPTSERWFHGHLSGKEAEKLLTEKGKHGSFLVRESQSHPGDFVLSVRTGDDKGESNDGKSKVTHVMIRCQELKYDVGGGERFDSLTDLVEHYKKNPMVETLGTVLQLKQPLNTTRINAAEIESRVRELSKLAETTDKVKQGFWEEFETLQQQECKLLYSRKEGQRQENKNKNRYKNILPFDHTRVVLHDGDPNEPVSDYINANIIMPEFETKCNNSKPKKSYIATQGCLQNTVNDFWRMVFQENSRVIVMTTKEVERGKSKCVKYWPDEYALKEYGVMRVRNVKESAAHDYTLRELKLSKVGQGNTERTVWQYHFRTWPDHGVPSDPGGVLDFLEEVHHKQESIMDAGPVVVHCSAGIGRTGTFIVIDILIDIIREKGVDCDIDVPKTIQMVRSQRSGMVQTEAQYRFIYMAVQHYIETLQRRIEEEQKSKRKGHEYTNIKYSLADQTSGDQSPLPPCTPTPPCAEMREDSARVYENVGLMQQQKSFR

Compound	EC50 [1]	EC50 [2]	IC50 [3]	EC50 [4]	CC50 [5]	AC50 [6]	CC50 [7]	IC50 [8]	IC50 [9]	IC50 [10]	EC50 [11]	IC50 [12]	IC50 [13]	IC50 [14]	IC50 [15]	IC50 [16]
C=CCN1C(=O)NC(=O)/C(=C/C=C/c2ccccc2)C1=O	> 300 µM (not active)	> 20 µM (inactive)	> 20 µM (inactive)	> 20 µM (inactive)	75.4 µM (active)	5.94 µM (active)	> 25 µM (active)	12.4 µM (inactive)	> 20 µM (inactive)	9.21 µM (active)	> 300 µM (not active)	–	–	–	–	–
CN1CCN(C(S)=Nc2ccc(S(N)(=O)=O)cc2)CC1	–	–	–	–	–	–	–	–	–	–	–	6.54 µM (active)	27.8 µM (inactive)	27.4 µM (active)	15.4 µM (active)	1.32 µM (active)
NS(=O)(=O)c1ccc(NC(=S)N2CCN(c3ccccc3)CC2)cc1	–	–	–	–	–	–	–	–	–	–	–	–	–	72.8 µM (active)	67.2 µM (active)	–
